Reference: ChEMBL document CHEMBL2384956, “Discovery of tetrahydropyrazolopyrimidine carboxamide derivatives as potent and orally active antitubercular agents” (ACS Med Chem Lett, 2013)
≈ marks a conversion by molar mass, not a printed value. Calls of active or inactive are those of the source. The calls are words filed in the database; no cut-off is given here.

Experiments:
[1] = Octanol-water partition coefficient, log P of the compound; assay type: physicochemical
[2] = Aqueous solubility of the compound at pH 6.8; assay type: physicochemical
[3] = Plasma protein binding in human; assay type: ADME, cell-free; settings: read-out: PPB (converted)
[4] = Plasma protein binding in mouse; assay type: ADME, cell-free; settings: read-out: PPB (converted)
[5] = system: Mycobacterium tuberculosis; assay: Antitubercular activity against Mycobacterium tuberculosis H37Rv ATCC 27294 […]; assay type: functional
[6] = Volume of distribution at steady state in mouse at 5 mg/kg, iv; assay type: ADME, organism-based; design: dose 5 mg/kg, route intravenous; settings: in vivo, read-out: Vdss
[7] = Clearance in mouse liver microsomes; assay type: ADME, Microsome; settings: read-out: CLH
Cytochrome P450 2D6 = Cytochrome P450 2D6 (Homo sapiens, UniProt P10635); assay: Inhibition of CYP2D6 in human liver microsomes using bufuralol as substrate by LC-MS/MS analysis; assay type: ADME, Microsome
Sequence of Cytochrome P450 2D6 (P10635 whole entry): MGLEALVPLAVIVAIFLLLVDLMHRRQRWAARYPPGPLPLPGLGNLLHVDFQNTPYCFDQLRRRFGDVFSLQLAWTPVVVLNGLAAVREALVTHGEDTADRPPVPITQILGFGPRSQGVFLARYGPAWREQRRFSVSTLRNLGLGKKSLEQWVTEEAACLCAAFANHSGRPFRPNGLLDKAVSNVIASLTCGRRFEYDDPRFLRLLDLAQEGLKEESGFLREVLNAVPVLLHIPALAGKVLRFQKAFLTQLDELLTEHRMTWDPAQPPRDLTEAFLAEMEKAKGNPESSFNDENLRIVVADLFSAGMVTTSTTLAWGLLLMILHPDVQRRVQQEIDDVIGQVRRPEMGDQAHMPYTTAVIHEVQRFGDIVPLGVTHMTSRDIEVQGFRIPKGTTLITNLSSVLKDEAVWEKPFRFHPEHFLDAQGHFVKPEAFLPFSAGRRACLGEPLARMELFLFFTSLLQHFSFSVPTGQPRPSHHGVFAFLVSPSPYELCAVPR

Cytochrome P450 2C9 = Cytochrome P450 2C9 (Homo sapiens, UniProt P11712); assay: Inhibition of CYP2C9 in human liver microsomes using diclofenac as substrate by LC-MS/MS analysis; assay type: ADME, Microsome
Sequence of Cytochrome P450 2C9 (P11712 whole entry): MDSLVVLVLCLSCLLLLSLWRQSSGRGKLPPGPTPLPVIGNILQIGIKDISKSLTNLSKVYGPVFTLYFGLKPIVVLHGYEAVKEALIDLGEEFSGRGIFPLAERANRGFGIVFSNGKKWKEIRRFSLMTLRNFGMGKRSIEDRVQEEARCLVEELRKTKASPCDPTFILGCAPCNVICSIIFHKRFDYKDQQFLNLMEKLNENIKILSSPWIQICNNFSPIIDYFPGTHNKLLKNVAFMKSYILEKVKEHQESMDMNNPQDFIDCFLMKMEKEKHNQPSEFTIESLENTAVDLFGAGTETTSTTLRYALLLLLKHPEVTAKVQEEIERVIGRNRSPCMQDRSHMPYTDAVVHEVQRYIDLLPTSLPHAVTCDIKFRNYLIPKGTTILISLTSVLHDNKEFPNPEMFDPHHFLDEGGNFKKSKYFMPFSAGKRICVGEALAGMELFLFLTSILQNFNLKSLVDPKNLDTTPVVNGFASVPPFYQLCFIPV

[8] = target: T1, Nuclear receptor subfamily 1 group I member 2 (Homo sapiens, UniProt O75469); assay: Induction of PXR-mediated CYP3A4 expression in human DPX2 cells after 24 hrs by luciferase reporter gene assay; assay type: cell-based; settings: dpx2, 24 h
T1 sequence (O75469 whole entry): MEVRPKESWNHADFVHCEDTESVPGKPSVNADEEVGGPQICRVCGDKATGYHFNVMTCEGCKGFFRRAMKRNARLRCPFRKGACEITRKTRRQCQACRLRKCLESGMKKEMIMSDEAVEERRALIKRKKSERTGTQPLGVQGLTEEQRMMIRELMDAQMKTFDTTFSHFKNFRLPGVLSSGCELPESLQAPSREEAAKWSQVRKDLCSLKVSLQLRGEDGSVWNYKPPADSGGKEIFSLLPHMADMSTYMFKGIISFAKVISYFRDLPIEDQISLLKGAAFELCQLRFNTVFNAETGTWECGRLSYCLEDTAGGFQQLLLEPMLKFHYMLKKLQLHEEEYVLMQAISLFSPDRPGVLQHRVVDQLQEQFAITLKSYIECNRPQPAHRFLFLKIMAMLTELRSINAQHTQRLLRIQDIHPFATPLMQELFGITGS

Cytochrome P450 3A4 = Cytochrome P450 3A4 (Homo sapiens, UniProt P08684); assay: Inhibition of CYP3A4 in human liver microsomes using midazolam as substrate by LC-MS/MS analysis; assay type: ADME, Microsome
Sequence of Cytochrome P450 3A4 (P08684 whole entry): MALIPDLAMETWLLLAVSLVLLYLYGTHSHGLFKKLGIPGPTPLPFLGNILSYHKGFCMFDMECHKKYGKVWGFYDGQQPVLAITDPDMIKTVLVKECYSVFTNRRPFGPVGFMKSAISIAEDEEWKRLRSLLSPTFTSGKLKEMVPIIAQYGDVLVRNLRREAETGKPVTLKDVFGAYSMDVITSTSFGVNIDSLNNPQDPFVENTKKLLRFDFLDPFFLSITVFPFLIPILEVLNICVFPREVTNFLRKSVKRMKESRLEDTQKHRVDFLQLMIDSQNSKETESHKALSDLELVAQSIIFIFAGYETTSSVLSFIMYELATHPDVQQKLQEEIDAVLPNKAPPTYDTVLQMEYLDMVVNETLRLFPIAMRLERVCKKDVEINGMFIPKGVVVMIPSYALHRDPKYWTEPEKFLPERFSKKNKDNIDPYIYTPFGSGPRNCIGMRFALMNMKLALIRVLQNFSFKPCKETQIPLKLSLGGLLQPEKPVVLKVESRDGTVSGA

[9] = system: Mycobacterium tuberculosis; assay: Antitubercular activity against Mycobacterium tuberculosis infected in BALB/c mouse assessed as reduction in log10CFU at 100 mg/kg, po qd administered 7 days post-infection for 28 days relative to control; assay type: functional
[10] = system: Mycobacterium tuberculosis; assay: Bactericidal activity against Mycobacterium tuberculosis H37Rv ATCC 27294 infected in activated human THP1 cells; assay type: functional, organism-based; settings: THP-1
[11] = Elimination half life in mouse at 5 mg/kg, iv; assay type: ADME, organism-based; design: dose 5 mg/kg, route intravenous; settings: in vivo, read-out: beta t1/2 (converted)
[12] = Cmax in mouse at 25 mg/kg, po; assay type: ADME, organism-based; design: dose 25 mg/kg, route oral; settings: in vivo
[13] = Ratio of AUC in mouse lung to AUC in mouse plasma at 25 mg/kg, po; assay type: ADME, organism-based; design: dose 25 mg/kg, route oral; settings: read-out: Ratio AUC
[14] = AUC in mouse; assay type: ADME, organism-based; settings: plasma
[15] = Cmax in mouse; assay type: ADME, organism-based; settings: in vivo
Cytochrome P450 3A5 = Cytochrome P450 3A5 (Homo sapiens, UniProt P20815); assay: Inhibition of CYP3A5 in human liver microsomes using midazolam as substrate by LC-MS/MS analysis; assay type: ADME, Microsome
Sequence of Cytochrome P450 3A5 (P20815 whole entry): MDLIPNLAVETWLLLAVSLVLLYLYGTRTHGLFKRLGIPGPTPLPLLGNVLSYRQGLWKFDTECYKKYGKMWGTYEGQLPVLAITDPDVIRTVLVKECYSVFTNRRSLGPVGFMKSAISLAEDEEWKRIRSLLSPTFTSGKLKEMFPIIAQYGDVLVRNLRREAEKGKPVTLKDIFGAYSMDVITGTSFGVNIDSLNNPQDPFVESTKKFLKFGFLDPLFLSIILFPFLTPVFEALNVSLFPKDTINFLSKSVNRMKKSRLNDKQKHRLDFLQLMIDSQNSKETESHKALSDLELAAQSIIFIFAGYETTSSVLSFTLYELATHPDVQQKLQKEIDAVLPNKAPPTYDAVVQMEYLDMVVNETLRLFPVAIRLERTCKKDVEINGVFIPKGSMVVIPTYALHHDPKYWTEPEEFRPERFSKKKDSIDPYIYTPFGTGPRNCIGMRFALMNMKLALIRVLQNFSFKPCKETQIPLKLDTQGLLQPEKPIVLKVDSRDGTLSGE

[16] = AUC in mouse at 25 mg/kg, po; assay type: ADME, organism-based; design: dose 25 mg/kg, route oral; settings: plasma
[17] = Ratio of Cmax in mouse lung to Cmax in mouse plasma at 25 mg/kg, po; assay type: ADME, organism-based; design: dose 25 mg/kg, route oral
[18] = Clearance in mouse at 5 mg/kg, iv; assay type: ADME, organism-based; design: dose 5 mg/kg, route intravenous; settings: in vivo
[19] = Oral bioavailability in mouse at 25 mg/kg; assay type: ADME, organism-based; settings: in vivo
[20] = Cmax in mouse at 200 mg/kg, po; assay type: ADME, organism-based; design: dose 200 mg/kg, route oral; settings: in vivo
[21] = AUC in mouse at 200 mg/kg, po; assay type: ADME, organism-based; design: dose 200 mg/kg, route oral; settings: plasma

| Compound | logP [1] | solubility [2] | fraction unbound [3] | fraction unbound [4] | MIC [5] | Vd [6] | microsomal CLint [7] | inhibition (INH) (Cytochrome P450 2D6) | inhibition (INH) (Cytochrome P450 2C9) | Activity [8] | inhibition (INH) (Cytochrome P450 3A4) | half-life [11] | Cmax [12] | Kp [13] | inhibition (INH) (Cytochrome P450 3A5) | AUC [16] | Kp [17] | clearance [18] | bioavailability [19] | Activity [9] | also measured |
| --- | --- | --- | --- | --- | --- | --- | --- | --- | --- | --- | --- | --- | --- | --- | --- | --- | --- | --- | --- | --- | --- |
| COc1ccc(CNC(=O)c2cnn3c2N[C@@H](c2ccc(C)cc2)C[C@H]3C(F)(F)F)cn1 | 5.1 | < 4 µM | < 0.01 | < 0.01 | 0.47 µM (≈ 0.209 µg/mL) | – | – | – | – | – | – | – | – | – | – | – | – | – | – | – | – |
| Cc1ccc([C@H]2C[C@@H](C(F)(F)F)n3ncc(C(=O)NCc4ccc(F)cn4)c3N2)nc1 | 3.2 | 347 µM (≈ 151 µg/mL) | 0.181 | 0.128 | 52.2 µM (≈ 22.7 µg/mL) | – | – | – | – | – | – | – | – | – | – | – | – | – | – | – | – |
| Cc1ccc([C@H]2C[C@@H](C(F)(F)F)n3ncc(C(=O)NCc4ccc(F)cc4)c3N2)o1 | 5.5 | < 4 µM | < 0.01 | < 0.01 | 0.13 µM (≈ 0.0549 µg/mL) | – | – | – | – | – | – | – | – | – | – | – | – | – | – | – | – |
| COCCOc1ccc([C@H]2C[C@@H](C(F)(F)F)n3ncc(C(=O)NCc4ccc(F)cc4)c3N2)cc1 | 4.1 | 6 µM (≈ 2.95 µg/mL) | 0.019 | 0.015 | 0.44 µM (≈ 0.217 µg/mL) | – | – | – | – | – | – | – | – | – | – | – | – | – | – | – | – |
| O=C(NCc1ccc(F)cc1)c1cnn2c1N[C@@H](c1ccc(N3CCOCC3)cc1)C[C@H]2C(F)(F)F | 4.8 | < 4 µM | 0.018 | 0.016 | 0.87 µM (≈ 0.438 µg/mL) | – | – | – | – | – | – | – | – | – | – | – | – | – | – | – | – |
| Cc1ccc([C@H]2C[C@@H](C(F)(F)F)n3ncc(C(=O)NCc4ccc(F)cc4)c3N2)cc1 | 6.3 | < 4 µM | < 0.01 | < 0.01 | 0.15 µM (≈ 0.0649 µg/mL) | 6.3 L/kg | 43.5 µL/min/mg | Not Active | Not Active | Not Active | Not Active | 4.2 h | 3.6 µM | 4.5 | Not Active | 18.9 µM·h | 3.2 | 1.86 L/h/kg | 65% | – | log10cfu [9]: 3.5; Activity [10]: Active; AUC [14]: 91.1 µM·h; Cmax [15]: 8.3 µM |
| CC[C@@H](CO)NCCN[C@@H](CC)CO | – | – | – | – | – | – | – | – | – | – | – | – | – | – | – | – | – | – | – | Active | – |
| O=C(NCc1ccc(F)cc1)c1cnn2c1N[C@@H](c1ccc(OC3COC3)cc1)C[C@H]2C(F)(F)F | 5.1 | 9 µM (≈ 4.41 µg/mL) | 0.027 | 0.024 | 0.73 µM (≈ 0.358 µg/mL) | 2.5 L/kg | 8.92 µL/min/mg | Not Active | Not Active | Not Active | Not Active | 4.1 h | 3.7 µM | 2.2 | Not Active | 41.7 µM·h | 2.7 | 0.594 L/h/kg | 52% | inactive | Cmax [20]: 7.3 µM; AUC [21]: 71.3 µM·h |
| Cc1ccc([C@H]2C[C@@H](C(F)(F)F)n3ncc(C(=O)NCc4ccc(F)cc4)c3N2)nc1 | 4.4 | 9 µM (≈ 3.9 µg/mL) | 0.039 | 0.042 | 0.44 µM (≈ 0.191 µg/mL) | 3.4 L/kg | 71.8 µL/min/mg | Not Active | Not Active | Not Active | Not Active | 1.3 h | 3.6 µM | 2.1 | Not Active | 25 µM·h | 1.9 | 2.28 L/h/kg | 100% | inactive | Cmax [20]: 11.8 µM; AUC [21]: 91.9 µM·h |
| Cc1ccc([C@H]2C[C@@H](C(F)F)n3ncc(C(=O)NCc4ccc(F)cc4)c3N2)nc1 | 4.6 | 212 µM (≈ 88.1 µg/mL) | 0.043 | 0.052 | 0.6 µM (≈ 0.249 µg/mL) | 2.6 L/kg | 85.6 µL/min/mg | Not Active | Not Active | Not Active | Not Active | 1.8 h | 5.5 µM | 2.8 | Not Active | 16.8 µM·h | 1.7 | 1.44 L/h/kg | 53% | inactive | Cmax [20]: 15.2 µM; AUC [21]: 77.7 µM·h |
| Cc1ccc([C@H]2C[C@@H](C(F)(F)F)n3ncc(C(=O)NCc4ccc(F)cn4)c3N2)cc1 | 4.9 | < 4 µM | 0.01 | < 0.01 | 0.83 µM (≈ 0.36 µg/mL) | – | – | – | – | – | – | – | – | – | – | – | – | – | – | – | – |
| COCCOc1ccc([C@H]2C[C@@H](C(F)(F)F)n3ncc(C(=O)NCc4ccc(F)cn4)c3N2)cc1 | 3.2 | 20 µM (≈ 9.87 µg/mL) | 0.122 | 0.108 | 3.7 µM (≈ 1.83 µg/mL) | – | – | – | – | – | – | – | – | – | – | – | – | – | – | – | – |
